12 compounds from ChEMBL document CHEMBL1201862, “PubChem BioAssay data set” (2004) can be followed below.

Molecules are shown by their SMILES.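 Growth conditions: 96-well plates. Treatment: test compound, 48 hours, 5 concentrations. Analysis: linear interpolation between bracketing concentrations; unreached endpoints set to highest concentration. Here, GI50 denotes the concentration required for 50% inhibition of growth.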 Activity calls are given as the source filed them. Cut-off read from the data, not from the text of the source: active = GI50 up to about 1.1 µM and inactive = higher.

Some test systems named below: UO-31; LOX IMVI; CCRF-CEM; 786-0; RPMI-8226; HCT-116; SK-OV-3; SF-295; CAKI-1; OVCAR-8; HOP-62; SK-MEL-5; NCI-H226; K562; HT-29; KM12; HOP-92; ACHN; SR.
What all share (experiment): growth of human tumour cells (NCI), 48 h

Take `Cn1c(=O)c(NC(=O)C(Cl)(Cl)Cl)nc2ccccc21`: the GI50 with UO-31, in the assay on LOX IMVI, in the assay with CCRF-CEM, in the assay with 786-0, in the assay with RPMI-8226 and with HCT-116 was > 100 µM (inactive) each time. The GI50 with SK-OV-3, with SF-295, with CAKI-1, with OVCAR-8, in the assay with HOP-62 and in the assay with SK-MEL-5 was > 100 µM (inactive) each time. For the same compound, the GI50 with NCI-H226 is 81.8 µM (inactive); in the assay with K562 it was > 100 µM (inactive); with HT-29, > 100 µM (inactive); in the assay with KM12 it was > 100 µM (inactive).
For the compound `CN(C)CCNC(=O)c1cccc2ccc(-c3cccnc3)nc12`, the GI50 is 1.98 µM (inactive) in the assay on UO-31; 3.8 µM (inactive) in the assay with LOX IMVI; 6.4 µM (inactive) in the assay with CCRF-CEM; 5.89 µM (inactive) in the assay with 786-0; 3.24 µM (inactive) in the assay on HCT-116; 10.1 µM (inactive) with SK-OV-3. Moreover, the GI50 in the assay on SF-295 is 5.69 µM (inactive); in the assay with CAKI-1 it was 3.88 µM (inactive); with OVCAR-8 it was 4.3 µM (inactive); in the assay with HOP-92, 4.39 µM (inactive); in the assay with ACHN, 3.44 µM (inactive); with HOP-62 it was 5.57 µM (inactive). Besides, the GI50 in the assay with SK-MEL-5 was 3.72 µM (inactive); with NCI-H226, 6.84 µM (inactive); with K562, 4.74 µM (inactive); in the assay on HT-29 it was 4.78 µM (inactive); with KM12, 6.5 µM (inactive).
For the compound `COc1cc2cc[n+](C)c(Cc3ccccc3)c2cc1OC`, the GI50 in the assay with UO-31, in the assay with LOX IMVI, in the assay on CCRF-CEM, in the assay on 786-0, with RPMI-8226 and with HCT-116 was > 100 µM (inactive) throughout. The GI50 was > 100 µM (inactive) in the assay with SK-OV-3; > 100 µM (inactive) in the assay on SF-295; > 100 µM (inactive) in the assay with OVCAR-8; 96.6 µM (inactive) in the assay on HOP-92; > 100 µM (inactive) in the assay with ACHN; > 100 µM (inactive) in the assay on SK-MEL-5. Besides, the GI50 in the assay on NCI-H226, in the assay with K562, in the assay on HT-29 and in the assay on KM12 was > 100 µM (inactive) each time.
With `CSc1n/c(=N\c2ccccc2)sn1-c1ccccc1`, the GI50 with UO-31 is 17.3 µM (inactive); in the assay on LOX IMVI it was 16.6 µM (inactive); in the assay on CCRF-CEM it was 11.2 µM (inactive); in the assay with 786-0, 16.6 µM (inactive); in the assay with RPMI-8226 it was 5.45 µM (inactive); in the assay with HCT-116 it was 8.43 µM (inactive). For the same compound, the GI50 in the assay with SK-OV-3 is 36.6 µM (inactive); in the assay with SF-295, 21.5 µM (inactive); in the assay on CAKI-1, 13.5 µM (inactive); in the assay with SR, 17.8 µM (inactive); with OVCAR-8 it was 21.7 µM (inactive); with ACHN, 18.9 µM (inactive). Also, the GI50 with HOP-62 is 15.6 µM (inactive); in the assay with SK-MEL-5, 11.2 µM (inactive); in the assay with NCI-H226 it was 15.5 µM (inactive); with K562, 3.24 µM (inactive); in the assay with HT-29, 3.52 µM (inactive); with KM12, 17.3 µM (inactive).
`CCOC(=O)/C(O)=C/c1cc(OC)cc(=O)o1`: the GI50 in the assay on UO-31, in the assay on LOX IMVI, in the assay on CCRF-CEM, with 786-0, in the assay with RPMI-8226 and in the assay on HCT-116 was > 100 µM (inactive) throughout. Further, the GI50 with SK-OV-3, in the assay on SF-295, in the assay on CAKI-1, in the assay with OVCAR-8, with HOP-92 and with ACHN was > 100 µM (inactive) in each case. The GI50 with SK-MEL-5, in the assay with NCI-H226, in the assay on K562, in the assay on HT-29 and in the assay with KM12 was > 100 µM (inactive) throughout.
For `Cc1ccc([N+](=O)[O-])cc1NC(=O)c1cccc([N+](=O)[O-])c1O`, the GI50 in the assay on UO-31 was 6.27 µM (inactive); with LOX IMVI, 26.6 µM (inactive); in the assay on CCRF-CEM, 18.2 µM (inactive); in the assay on 786-0, 28.9 µM (inactive); with RPMI-8226 it was 4.73 µM (inactive); in the assay on SK-OV-3, 17.1 µM (inactive). The GI50 in the assay on SF-295 was 18 µM (inactive); with CAKI-1, 17.8 µM (inactive); in the assay on OVCAR-8, 23 µM (inactive); in the assay on ACHN, 14.4 µM (inactive); in the assay with HOP-62 it was 7.96 µM (inactive); in the assay on SK-MEL-5 it was 7.91 µM (inactive). The GI50 in the assay on NCI-H226 was 13.6 µM (inactive); in the assay with K562, 12.3 µM (inactive); in the assay on HT-29, 20.1 µM (inactive); with KM12, 19.1 µM (inactive).
As for `CC1=C(C(=O)Nc2cc(F)c(F)cc2F)C(c2ccc(N(C)C)cc2)C(C(=O)Nc2cc(F)c(F)cc2F)=C(C)N1`, the GI50 is 17.1 µM (inactive) with UO-31; 31.8 µM (inactive) in the assay on LOX IMVI; 18.5 µM (inactive) in the assay on CCRF-CEM; 27.1 µM (inactive) with 786-0; 17.2 µM (inactive) with RPMI-8226; 30.1 µM (inactive) with SK-OV-3. Besides, the GI50 in the assay with SF-295 is 24.3 µM (inactive); in the assay with CAKI-1, 13.8 µM (inactive); in the assay with OVCAR-8 it was 29.6 µM (inactive); in the assay on HOP-92, 0.53 µM (active); with ACHN, 19.4 µM (inactive); with HOP-62 it was 21.1 µM (inactive). Moreover, the GI50 was 17.8 µM (inactive) in the assay with SK-MEL-5; 20.6 µM (inactive) in the assay on NCI-H226; 23.6 µM (inactive) in the assay with K562; 30.3 µM (inactive) in the assay with HT-29; 19.9 µM (inactive) in the assay with KM12.
As to `COc1ccc(C2NCCc3c2[nH]c2ccccc32)cc1` (centres undefined), the GI50 was 42.3 µM (inactive) with UO-31; > 100 µM (inactive) in the assay with LOX IMVI; 77.6 µM (inactive) in the assay with CCRF-CEM; 83.8 µM (inactive) in the assay with 786-0; > 100 µM (inactive) in the assay on RPMI-8226; 51.5 µM (inactive) in the assay with HCT-116. In addition, the GI50 with SK-OV-3 is > 100 µM (inactive); in the assay with SF-295 it was > 100 µM (inactive); with SR it was 28.2 µM (inactive); with OVCAR-8, > 100 µM (inactive); in the assay with HOP-92 it was > 100 µM (inactive); in the assay with ACHN, > 100 µM (inactive). Moreover, the GI50 with HOP-62 is 21.2 µM (inactive); in the assay on SK-MEL-5, 22.5 µM (inactive); in the assay with NCI-H226 it was > 100 µM (inactive); with K562, 60.8 µM (inactive); in the assay with HT-29, > 100 µM (inactive); in the assay with KM12, > 100 µM (inactive).
Turning to `CC(=O)O[C@]12CCCCCCC1C1(O)C(O)CCC[C@H]12` (some centres undefined), the GI50 with UO-31, in the assay on LOX IMVI, with CCRF-CEM, in the assay on 786-0, with RPMI-8226 and in the assay with HCT-116 was > 100 µM (inactive) throughout. The GI50 with SK-OV-3, with SF-295, with SR, in the assay with OVCAR-8, with ACHN and in the assay with HOP-62 was > 100 µM (inactive) throughout. Moreover, the GI50 in the assay with SK-MEL-5, in the assay on NCI-H226, with K562, in the assay with HT-29 and in the assay on KM12 was > 100 µM (inactive) throughout.
Take `CC(C)C1COC(C(C)(C)C2=N[C@@H](C(C)C)CO2)=N1` (some centres undefined): the GI50 in the assay on UO-31, in the assay on LOX IMVI, with CCRF-CEM, in the assay on 786-0, with RPMI-8226 and with HCT-116 was > 100 µM (inactive) each time. The GI50 with SK-OV-3 was > 100 µM (inactive); with SF-295, > 100 µM (inactive); in the assay with SR it was > 100 µM (inactive); in the assay with OVCAR-8 it was > 100 µM (inactive); in the assay with HOP-92 it was 70.3 µM (inactive); in the assay with ACHN it was > 100 µM (inactive). Also, the GI50 with HOP-62, in the assay with SK-MEL-5, with NCI-H226, in the assay on K562, with HT-29 and in the assay on KM12 was > 100 µM (inactive) each time.
`CC(=O)NC(CCCN)C(=O)NCc1ccccc1` (centres undefined): the GI50 in the assay on UO-31, in the assay on LOX IMVI, in the assay with CCRF-CEM, in the assay on 786-0, with RPMI-8226 and with HCT-116 was > 100 µM (inactive) throughout. Also, the GI50 with SK-OV-3, in the assay with SF-295, in the assay on CAKI-1, in the assay with OVCAR-8, in the assay on HOP-92 and in the assay on ACHN was > 100 µM (inactive) each time. For the same compound, the GI50 with HOP-62, in the assay on SK-MEL-5, in the assay with NCI-H226, with K562, with HT-29 and with KM12 was > 100 µM (inactive) each time.
As for `O=C(Nc1c(-c2nc3ccccc3[nH]2)sc(=S)n1-c1ccccc1)c1ccccc1`, the GI50 in the assay on UO-31 was > 100 µM (inactive); with LOX IMVI, 97.1 µM (inactive); in the assay on CCRF-CEM, > 100 µM (inactive); with 786-0, 91.2 µM (inactive); with RPMI-8226, > 100 µM (inactive); in the assay with SK-OV-3, > 100 µM (inactive). Besides, the GI50 with SF-295 was 97.5 µM (inactive); with CAKI-1 it was > 100 µM (inactive); with OVCAR-8, 88.9 µM (inactive); in the assay with ACHN it was > 100 µM (inactive); in the assay with HOP-62 it was 56.1 µM (inactive); in the assay on SK-MEL-5, > 100 µM (inactive). The GI50 was 24.5 µM (inactive) with NCI-H226, > 100 µM (inactive) with K562, > 100 µM (inactive) in the assay on HT-29 and > 100 µM (inactive) in the assay on KM12.
